The text below walks through data of patent US12636269B2, “Compositions and methods of use of gamma-ketoaldheyde scavengers for treating, preventing or improving fibrosis of the liver” (MTI Biotech, Inc., priority 2017, dated 2026).

The test system of data set [1] is primary human HSC. To be noted: non-cytotoxic levels; cited from earlier work.
Data set [2] relates to DIAMOND mice. The experiment in a line: liver histology (fibrosis, steatosis, ballooning, inflammation) in DIAMOND mice on high-fat, high-sugar diet. The class given is in vivo, mouse. To be noted: for fibrosis score: Picosirius Red staining, scale of 0 to 4, 1 g/L in drinking water, 12 weeks. An excerpt: DIAMOND (Diet Induced Animal Model of Non-alcoholic fatty liver Disease) is a proprietary isogenic mouse strain that sequentially develops non-alcoholic fatty liver disease, non-alcoholic steatohepatitis, fibrosis, and hepatocellular carcinoma in response to a high-fat, high-sugar diet. Disease progression in the DIAMOND mice uniquely parallels human disease progression, including histopathology.
(§1) Twelve 8-wk old male DIAMOND mice were placed on ad libitum high fat diet (Harlan—ENVIGO TD.88317) and water containing glucose (18.9% w/v) and fructose (23.1% w/v); all mice remained on this diet throughout the study protocol. At 12 weeks of age, mice were divided into two groups: 1) 2-HOBA (n=6), and 2) vehicle controls (n=6). Animals in the 2-HOBA group received 2-HOBA in drinking water (1 g/L water with glucose and fructose). The vehicle control group received water without 2-HOBA (with glucose and fructose). Body weight and food intake were measured weekly. At […] of age, all animals underwent a glucose tolerance test (GTT) and MRI imaging to assess hepatic fat. For the GTT, animals were fasted for 12 hours and then glucose (2 g/kg bw of a 100 mg/mL glucose in sterile water) was administered by oral gavage. Blood was sampled at 0, 15, 30, 45, 60, 90, and 120 minutes after glucose administration and area under the curve was calculated. Animals were sacrificed at 24 weeks of age (12 weeks of 2-HOBA or vehicle treatment). Tissues and serum were collected for analysis.
Liver sections were stained with hematoxylin and eosin (for scoring of steatosis, hepatocyte ballooning, and inflammation) and Sirius red (for assessment of fibrosis). Scoring was performed in a blinded manner for steatosis, ballooning, inflammation, and necrosis using the following criterial, Steatosis (0-4): 0=<5%; 1=5-25%; 2=25-50%; 3=50-75%; 4=75-100%. Ballooning (0-3): 0=absent; 1=mild (focal involving fewer than three hepatocytes); 2=moderate (focal involving more than three hepatocytes or multifocal); 3=prominent (multifocal with more than two foci of three or more hepatocytes). Inflammation (0-4): 0=absent; 1=minimal (zero to one focus per 20× field); 2=mild (two foci); 3=moderate (three foci); 4=severe (four or more foci). Serum levels of glucose, alanine transaminase, and aspartate transaminase were measured. Liver mRNA expression was assessed via RT-qPCR for the following genes: Tnfa, Nlrpla, Il1b, Il18, Timp1, Colla1, ProCard, Nlrp3, Casp1, ProIl1b, Tgfb1, Bambi, Pdk4, and Gapdh. Two-tailed independent samples t-tests were used to compare endpoints between 2-HOBA and vehicle treated groups. Significance was set at α=0.05.

For data set [3], the system named is Timp1. The experiment in a line: liver mRNA expression by RT-qPCR in DIAMOND mice, Timp1. Type of data set: in vivo, mouse. Conditions: qRT-PCR.
Excerpt: as §1, with “Animals were sacrificed at 24 weeks of age (12 weeks of 2-HOBA or vehicle treatment). Tissues and serum were collected for analysis.” left out
(§2) Liver sections were stained with hematoxylin and eosin (for scoring of steatosis, hepatocyte ballooning, and inflammation) and Sirius red (for assessment of fibrosis). […] Serum levels of glucose, alanine transaminase, and aspartate transaminase were measured. Liver mRNA expression was assessed via RT-qPCR for the following genes: Tnfa, Nlrpla, Il1b, Il18, Timp1, Colla1, ProCard, Nlrp3, Casp1, ProIl1b, Tgfb1, Bambi, Pdk4, and Gapdh. […]

For data set [4], the system named is Colla1. The experiment in a line: liver mRNA expression by RT-qPCR in DIAMOND mice, Colla1. The class given is in vivo, mouse. To be noted: qRT-PCR, not statistically significant (p=0.08).
Excerpt: as §1, with “Animals were sacrificed at 24 weeks of age (12 weeks of 2-HOBA or vehicle treatment). Tissues and serum were collected for analysis.” left out
as §2

The conditions of data set [5]: in vitro and in vivo; cited from earlier work.
The test system of data set [6] is cyclooxygenase enzymes. Conditions: cited from earlier work.
Data set [7] concerns HepG2 cells. Conditions: cited from earlier work.
The mark [8] stands for this setting: compared to vehicle treated DIAMOND mice.

Turning to 15-E2-isolevuglandin [15-E2-IsoLG], in data set [1], the “HSC activation (α-SMA expression, MAPK activation, cytokine production)” value was “promoted HSC activation”.

With `NCc1ccccc1O` [2-HOBA, 2-Hydroxybenzylamine], in data set [2] (DIAMOND mice), the hepatic fibrosis entry is “attenuates” and the markers of inflammation entry is reported as “without altering”. Moreover, the fibrosis score in data set [2] (the remaining two treated mice) came to 1. In data set [2] (three of the treated mice), this molecule displayed a fibrosis score of 0. Also, in data set [2] (setting [8]), the “degree of hepatic steatosis” value is listed as “similar” and the “degree of hepatocellular ballooning” value was “similar”. Further, the incidence of fibrosis entry in data set [2] (compared to vehicle treated DIAMOND mice, p=0.03) was “significantly lower”. In addition, the “liver Timp1 mRNA expression” value in data set [3] is given as “reduced”. The “Colla1 mRNA expression levels” value in data set [4] was “tended to be lower”. Besides, the “protein and lipid adduction” value in data set [5] was “preventing protein and lipid adduction”. The “inhibition of cyclooxygenase enzymes” value in data set [6] was “does not inhibit”. The “protection against H2O2-induced cytotoxicity” value in data set [7] is reported as “dramatically protected”.
